Tested on: IL-1β
Assay: IL-1β and IL-18 levels (PCR, western blot, ELISA)
Type: in vivo, mouse
Experimental: VX-765 (Adooq Bioscience, Irvine, CA, USA) was dissolved 5 mg • ml^−1 in 20% cremophor in dH2O[60] (Sigma-Aldrich, ON, Canada) and administered IPWT and J20 mice received three injections per week of either 50 mg • kg^−1 VX-765 or 20% cremophor vehicle for 4 weeks between 2 and 3 months of age. Mice were longitudinally followed starting 4 weeks after the last injection [4-week washout (WO)], then every other month at 12- and 20-week WO (6 and 8 months of age, respectively). Intermediate 8- and 16-week WO periods were also looked at with a smaller number of mice. After each WO period, animals were randomly chosen, independent of behavioural performance, for sacrifice and assigned to either histological or biochemical analysis (Fig. 2a).
Twenty to sixty micrograms of protein or 16 μl of precipitated protein from culture medium were separated on SDS-PAGE or 4–12% NuPAGE Bis-Tris gels (Invitrogen, Carlsbad, CA, USA) with MES buffer (Invitrogen) and transferred onto PVDF membranes (Bio-Rad) according to the manufacturer’s instructions. Membranes were probed with the following antibodies: 1:1000 mouse anti-Aβ1-16 (6E10) (BioLegend, CA, USA), 1:2000 rabbit anti-APP C-terminus (A8717) (Sigma-Aldrich), 1:1000 rabbit anti-neprilysin (Nep, Abcam, ON, Canada), 1:500 rabbit anti-insulin degrading enzyme (IDE, Abcam), 1:3000 rabbit anti-GFAP (Dako), 1:1000 rabbit anti-IL-1β (Abcam), 1:1000 rat anti-Caspase-1 (clone 4B4.2.1, kindly provided by Genentech, San Francisco, CA, USA) and 1:1000 mouse anti-β-actin (Sigma-Aldrich). […] Signals were visualized with the ImageQuant LAS 4000 imaging system and densitometric analyses were performed with Image Gauge analysis software 3.0 (Fujifilm USA, NY, USA). Protein extracts from three independent mice in each group were run together on each blot. Protein levels were normalized to β-actin and expressed as a percentage relative to the vehicle-treated WT group, except for APP which was compared to the vehicle-treated J20 group. Representative full blots are shown in the Source data file.
ELISA samples were prepared in RIPA described above. RIPA-insoluble pellets were further extracted in 70% formic acid (FA) in dH2O. FA was evaporated in a speed vacuum, and the resulting pellet was solubilized in 200 mM Tris-HCl, pH 7.5. IL-1β and Aβ levels (which include Aβ38, Aβ40 and Aβ42) were measured using Meso Scale Discovery ELISA kits (Rockville, MD, USA). Standards and samples were prepared according to the manufacturer’s protocols and run in duplicate.
Real-time PCR experiments were performed with SYBR Green Taq Mastermix (Quanta BioSciences, MD, USA) in a real-time cycler ABI 7500 Fast Block (Applied Biosystems, CA, USA). Primer sequences are described in the supplementary material. […]

`CCO[C@@H]1OC(=O)C[C@@H]1NC(=O)[C@@H]1CCCN1C(=O)[C@@H](NC(=O)c1ccc(N)c(Cl)c1)C(C)(C)C` [VX-765, (S)-1-((S)-2-{[1-(4-amino-3-chloro-phenyl)-methanoyl]-amino}-3,3-dimethyl-butanoyl)-pyrrolidine-2-carboxylic acid ((2R,3S)-2-ethoxy-5-oxo-tetrahydro-furan-3-yl)-amide] was tested, and the “active IL-1β levels (western blot)” value (J20 cortex, 20-week WO) was “normalized with VX-765 treatment at 20-week WO”, the “Il-1β mRNA” value (J20 hippocampus, 16-week WO) was “normalized with VX-765 treatment at 16-week WO” and the “cortical IL-1β levels (ELISA)” value (cortex, any WO) was “did not differ between groups at any WO”. The “total protein IL-1β levels (ELISA)” value (hippocampus, 4-, 12-, or 20-week WO) was “did not differ between treatment groups”.

From PMC7486940, “Pre-symptomatic Caspase-1 inhibitor delays cognitive decline in a mouse model of Alzheimer disease and aging” (Nature Communications, 2020)
